{"source": "patent US20250171404A1", "about": "“PCNA INHIBITORS AND USES THEREOF” (CITY OF HOPE, priority 2022, published 2025)", "key": {"[1]": {"test_system": "SK-N-BE(2)c xenograft tumors", "assay": "Xenograft tumor model, neuroblastoma", "assay_type": "in vivo, mice", "protocol": "(§1) FIGS. 4A-4H. Pharmacokinetics and anti-tumor growth activity of AOH1996 in vivo. FIG. 4A: After oral administration, the plasma concentrations of AOH1996 from three male and three female ES1^e/SCID mice at the indicated time points were averaged and graphed ±S.D. The inset contains PK parameters determined by a standard noncompartmental method. FIG. 4B: A similar PK study of AOH1996 was performed in dogs. FIGS. 4C-4E: Mice bearing the xenograft tumors of neuroblastoma (FIG. 4C: SK-N-BE(2)c), breast cancer (FIG. 4D: MDA-MB-468), and small-cell lung cancer (FIG. 4E: H82) were given vehicle only (black) or 40 mg/kg of AOH1996 (grey) twice daily immediately after the first measurement. Tumor sizes were measured by a dial caliper each week. Tumor volumes (0.4×L×W^2) were averaged and graphed ±S.E. (*, P<0.01). FIG. 4F: Animal body weight was monitored throughout the studies as an indicator of toxicity. Shown is a typical study results from the study of the SK-N-BE(2)c tumor model described in (FIG. 4C). FIG. 4G: The levels of phosphor-Chk1 (pChk1) and γH2A.X in SK-N-BE(2)c derived tumor samples were analyzed by IHC. Shown are representative images taken from tumors treated by vehicle only or by 40 mg/kg AOH1996. FIG. 4H: ES1^e/SCID mice bearing SK-N-AS derived xenograft tumors were treated with either 80 mg/kg of AOH1996 (black, n=7) for 8 d beginning 8 d after tumor implantation, 15 mg/kg of CPT-11 (n=8) for 3 d beginning 12 d after tumor implantation, or both agents (combination, n=8) under the same dosages and schedules as they were dosed alone. […] The p values determined by the Log-rank (Mantel-Cox) test between combination treatment and each of the control groups are p=0.0003 (Combination vs. NoRx), p=0.005 (Combination vs. AOH1996 alone), and p=0.024 (Combination vs. CPT-11 alone).\nIn vivo tumor model. […] Tumor size and animal weight were measured weekly. At the end of the experiment, tumors were isolated from sacrificed mice and analyzed by immunohistochemistry staining with antibodies specific for phosphor-Chk1 and γH2A.X."}, "[2]": {"test_system": "SK-N-DZ neuroblastoma cells", "assay": "Clonogenic assay with cisplatin", "assay_type": "cell-based, human", "conditions": "500 nM AOH1996, 18 hours", "protocol": "(§2) FIGS. 3A-3D. Therapeutic properties of AOH1996. FIG. 3A: Normal cells (7SM0032) or cancer cells (SH-SY5Y and SK-N-BE(2)c) cells were fixed, stained with PI, and analyzed by flow cytometry following treatment with 500 nM AOH1996 for the indicated time. FIG. 3B: SK-N-DZ neuroblastoma cells and nonmalignant 7SM0032 stem cells were incubated with 500 nM AOH1996 for 24 h. Then, after being fixed on slides, cell apoptosis were analyzed by a TUNEL assay. Left: TMR fluorophore attached to the free ends of DNA indicates cells undergoing apoptosis. DAPI stained nuclei also shown. Right: Average abundance ±S.D. of apoptotic 7SM0032 (black histogram) and SK-N-DZ (grey histogram) cells relative to the total number of cells are shown in 5 randomly selected fields. FIG. 3C: Human SK-N-DZ neuroblastoma cells were treated with or without the indicated concentrations of cisplatin in the absence or presence of 500 nM of AOH1996 for 18 hours. […] The relative number of colonies determined in triplicates for each treatment condition were averaged and graphed ±SDs (*, P<0.01). […] Cell growth was measured as the percentage of cell confluence by imaging every 6 h for a total of 48 h.\nClonogenic Assay. […] The colonies were stained with 0.5% crystal violet and counted. Synergy between AOH1996 and cisplatin was evaluated using combination indices (Cl) based on the Bliss independence model [C]=(EA+EB−EA*EB)/EAB] […]"}, "[3]": {"test_system": "MDA-MB-468 xenograft tumors", "assay": "Xenograft tumor model, breast cancer", "assay_type": "in vivo, mice", "conditions": "40 mg/kg twice daily, oral, vs vehicle", "protocol": "as §1, with “Shown is a typical study results from the study of the SK-N-BE(2)c tumor model described in (FIG. 4C).” left out, “IHC.” for “IHC. Shown are representative images taken from tumors treated by vehicle only or by 40 mg/kg AOH1996. FIG. 4H: ES1^e/SCID mice bearing SK-N-AS derived xenograft tumors were treated with either 80 mg/kg of AOH1996 (black, n=7) for 8 d beginning 8 d after tumor implantation, 15 mg/kg of CPT-11 (n=8) for 3 d beginning 12 d after tumor implantation, or both agents (combination, n=8) under the same dosages and schedules as they were dosed alone.”\nIn vivo tumor model. […] Tumor size and animal weight were measured weekly. […]"}, "SH-SY5Y and SK-N-BE(2)c": {"test_system": "SH-SY5Y and SK-N-BE(2)c", "assay": "Cell cycle analysis (PI, flow cytometry), cancer cells", "assay_type": "cell-based, human", "conditions": "500 nM", "protocol": "as §2\nCell Cycle Analysis. […] PI fluorescence intensity of the cells was measured by flow cytometry and the data was analyzed using the FlowJo program."}}, "data": [{"smiles": "COc1cccc(Oc2ccccc2NC(=O)CNC(=O)c2cccc3ccccc23)c1", "note": "[AOH1996, N-(2-((2-(3-methoxyphenoxy)phenyl)amino)-2-oxoethyl)-1-naphthamide]", "values": [{"measurement": "pharmacodynamics markers in tumors (immunohistochemistry)", "setting": "[1]; 40 mg/kg AOH1996 vs vehicle", "result": "Focal staining of γH2A.X and phospho-Chk1 were observed"}, {"measurement": "tumor burden", "setting": "[1]; 40 mg/kg twice daily, oral, vs vehicle", "result": "significantly reduced tumor burden"}, {"measurement": "death, body weight", "setting": "[1]; xenograft studies, 40 mg/kg twice daily", "result": "did not cause any death or significant weight loss"}, {"measurement": "sensitivity to cisplatin (colony formation)", "setting": "[2]", "result": "increased the sensitivity of cancer cells to genotoxic agents, including cisplatin"}, {"measurement": "tumor burden", "setting": "[3]", "result": "significantly reduced tumor burden"}, {"measurement": "change in cell-cycle profile", "setting": "SH-SY5Y and SK-N-BE(2)c", "result": "G2/M and/or S phase arrest in cancer cells"}]}]}
